Measured values reported in US20240316196A1, “METHODS AND COMPOSITIONS FOR DIFFERENTIATION OF PLURIPOTENT STEM CELLS AND DERIVED NATURAL KILLER CELLS” (NUWACELL BIOTECHNOLOGIES CO., LTD., priority 2022, published 2024).

Tests used:
Format in all cases: cell-based
[1] = system: K562 cells; assay: Cytotoxicity of Stage 3 iNK cells towards K562 cells (CFSE/7AAD assay); settings: added to Stage 3 medium (IL-10 20 ng/mL, IL-18 50 ng/mL); 4 hr co-culture, E:T 3:1 (FIG. 13A)
Procedure: hiPSCs were prepared as described in CN108373998B. On Day −1, Embryoid body (EB) formation (Stage 1-1) was carried out by placing individualized hiPSCs in E8 medium containing 10 μM Blebbistatin in T25 flasks on a bellydancer and culture overnight. On Day 0, lateral mesoderm differentiation (Stage 1-2) was initiated by changing the medium to a Stage 1-2 differentiation medium comprising IF-4 basal medium and supplemented with BMP4 (25 ng/mL), VEGF (15 ng/mL), bFGF (0.5 ng/mL) and CHIR99021 (4 μM) for 2 days. On Day 2, lateral mesoderm differentiation (Stage 1-3) continued for 1 day in a Stage 1-3 differentiation medium comprising IF-4 basal medium and supplemented with BMP4 (25 ng/mL), VEGF (50 ng/mL) and bFGF (0.5 ng/mL) and CHIR99021 (1 μM). On Day 3, HE specification (Stage 1-4) was initiated by adding a Stage 1-4 differentiation medium comprising IF-4 basal medium and supplemented with VEGF (15 ng/mL), bFGF (5 ng/mL), XAV939 (5 μM) for 1 day. […] On Day 11 of co-culture, iNK cells were collected and stained with CD56-PE antibody (BD, #555516), the percentage of CD56+ cells was analyzed by flow cytometry. The cytotoxicity of Stage 3 iNK cells towards K562 cells was detected by CFSE/7AAD assay after 4 hr co-culture at E:T of 3:1.

[2] = system: PBNK cells; assay: Expansion of PBNK cells from PBMCs (NK cell expansion fold; CD56+CD3− % by flow cytometry); settings: heparin sodium 0-50 μg/mL in NKSFM
Procedure: The effect of the concentration of nicotinamide (NAM) in an exemplary basal medium on NK cell expansion was evaluated. The above basal medium comprised the following components: IMDM (Sigma): RPMI1640 (Gibco) (50%: 50%); about 1.3 ng/mL of Cupric sulfate, about 3 μM of Ferric sulfate, about 0.432 μg/mL of Zinc sulfate, about 1-50 ng/mL of Na Selenite, about 110 μg/mL of Sodium pyruvate, 0.1-20 μg/mL of Insulin, 1-200 μg/mL of Transferrin, about 1%(v/v) of GlutaMAX-1, 0.1-20 mg/mL of HSA, 1-400 μM of MTG, about 80 μg/mL of Ascorbic acid and indicated concentration of NAM. Peripheral blood mononuclear cells (PBMCs) were isolated by density gradient centrifugation using Ficoll-Paque. On Day 0, PBMCs were plated at 1×10^6 cells/mL in a 48-well-plate in the basal medium with NAM (either 0, 1, 2, 2.5, 3, 3.5, 4, or 5 mM) and stimulated with the following reagents for 3 days: immobilized CD16 antibody (Biolegend, 302014) (135 ng/cm^2), IL-2 (700 IU/mL), IL-15 (10 ng/mL) and OK432 (0.01 KE/mL). On day 3, cells were re-suspended in the above basal medium supplemented with IL-2 (700 IU/mL) and IL-15 (10 ng/mL). Fresh medium was added every other day to maintain cell density below 2×10^6 cells/mL. Cells were collect on Day 14 and stained with CD56-PE and CD3-PerCP-Cy5.5 antibodies, the percentage of CD56^+CD3^− NK cells was analyzed by flow cytometry.
(§1) The effect of heparin sodium concentration in an exemplary NKSFM on NK cell expansion was also evaluated. NKSFM comprised the following components: IMDM (Sigma): DMEM/F12 (Gibco) (50%: 50%); about 20 μM of Ethanolamine, about 1-50 ng/mL of Na Selenite, about 110 μg/mL of Sodium pyruvate, 0.1-20 μg/mL of Insulin, 1-200 μg/mL of Transferrin, about 1%(v/v) of GlutaMAX-1, 0.1-20 mg/mL of Human serum albumin, 1-400 μM of MTG, about 80 μg/mL of Ascorbic acid, about 1-5 mM of NAM, 4%(v/v) of PLT, and indicated concentration of heparin sodium. PBMCs were isolated by density gradient centrifugation using Ficoll-Paque. On Day 0, PBMCs were plated at 1×10^6 cells/mL in a 48-well-plate in NKSFM with heparin sodium (0, 0.5, 1, 3, 10, 30, or 50 μg/mL) and stimulated with the following reagents for 3 days: immobilized CD16 antibody (Biolegend, 302014) (135 ng/cm^2), OK432 (0.01 KE/mL), NeoIL-2 (50 ng/mL), IL-12 (10 ng/mL), IL-18 (50 ng/mL). […] Cells were collect on Day 13 and stained with CD56-PE and CD3-PerCP-Cy5.5 antibodies, the percentage of CD56^+CD3^− NK cells was analyzed by flow cytometry. The specific lysis of K562 tumor cells by NK cells were assessed by CFSE/7-AAD cytotoxicity assay. […] After incubation for 4 hours, cells were stained with 7-AAD (Live/dead staining) and analyzed with flow cytometry.
The effect of PLT percentage (v/v) in an exemplary NKSFM on NK cell expansion was evaluated. […]

[3] = system: K562 tumor cells; assay: Specific lysis of K562 tumor cells by expanded NK cells (CFSE/7-AAD cytotoxicity assay); settings: heparin sodium 0-50 μg/mL in NKSFM; E:T 3:1, 4 hours (FIG. 3C)
Procedure: as §1, with “Ficoll-Paque.” for “Ficoll-Paque. On Day 0, PBMCs were plated at 1×10^6 cells/mL in a 48-well-plate in NKSFM with heparin sodium (0, 0.5, 1, 3, 10, 30, or 50 μg/mL) and stimulated with the following reagents for 3 days: immobilized CD16 antibody (Biolegend, 302014) (135 ng/cm^2), OK432 (0.01 KE/mL), NeoIL-2 (50 ng/mL), IL-12 (10 ng/mL), IL-18 (50 ng/mL).”
The effect of PLT percentage (v/v) in an exemplary NKSFM on NK cell expansion was evaluated. […] Cells were collect on Day 14 and stained with CD56-PE and CD3-PerCP-Cy5.5 antibodies, the percentage of CD56^+CD3^− NK cells was analyzed by flow cytometry. The specific lysis of K562 tumor cells by NK cells were assessed by CFSE/7-AAD cytotoxicity assay. […]

Row | Substance | cytotoxicity of iNK cells towards K562 cells [1] | NK cell expansion fold, effect of concentration ([2]; Day 13 (FIG. 3A)) | percentage of CD56^+CD3^− NK cells, effect of concentration ([2]; Day 13 (FIG. 3B)) | specific lysis of K562 tumor cells, effect of concentration [3]
1 | IL-10: interleukin added to Stage 3 expansion and maturation medium | significantly improve | – | – | –
2 | heparin sodium | – | significantly influences | minimal effect | minimal effect
